In patent publication US20180273531A1, “PYRIMIDINE COMPOUND AND MEDICAL USE THEREOF” (Japan Tobacco Inc., priority 2004, published 2018):

Assays:
Type in all cases: cell-based
[1] = system: colorectal cancer cell line HT-29 cells; assay: Growth inhibitory effect against cancer cell lines (3H-thymidine uptake), HT-29; conditions: Homo sapiens, HT-29, inhibition of 3H-thymidine uptake; test substance 18 hrs, then 3H-thymidine 6 hrs; triplicate
Method in brief: (§1)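 Cells seeded at 1.0×10^4/well, grown 24 hrs, then exposed to compound in DMSO for 18 hrs before 6 hrs pulse with ^3H-thymidine (0.25 μCi/well). Harvested cell-incorporated radioactivity counted; IC50 is the concentration halving uptake versus DMSO control, triplicate.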

[2] = system: p15 protein; assay: Evaluation of p15 induction activity (Western blotting); conditions: test substance 0.1 μM, 24 hrs, ACHN cells or HT-29 cells, compared to DMSO, n=2
Method in brief: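 p15 protein quantified by densitometry of anti-p15 Western blots (10 μg protein per lane, mean of n=2). Samples came from HT-29 or ACHN cells given 0.1 μM compound for 24 h after 24 h plating, with DMSO as control.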

[3] = system: Renal cancer cell line ACHN cell; assay: Growth inhibitory effect against cancer cell lines (3H-thymidine uptake), ACHN; conditions: Homo sapiens, ACHN
Method in brief: as §1

[4] = system: p27 protein; assay: p27 protein induction test (Western blotting); conditions: test substance (0.1 1M), 24 hrs, ACHN cells or HT-29 cells, compared to DMSO, n=2
Method in brief: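 ACHN or HT-29 cells grown 24 h, then treated with test substance at […] (DMSO) for 24 h. Lysates normalised by protein content and probed by Western blot with anti-p27 antibody. Band density quantified by densitometer against DMSO control, n=2 averaged.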

Row | SMILES | IC50 [1] | fold induction at 0.1 µM [2] | IC50 [3] | fold induction at 0.1 µM [4]
1 | CSc1ccc(Nc2c3c(=O)n(C4CC4)c(=O)n(-c4cccc(NS(N)(=O)=O)c4)c3c(C)c(=O)n2C)c(F)c1 [Example 4-120] | < 10 nM | ≥ 1.5 | 10 to 100 nM | ≥ 1.5
2 | CCc1ccc(Nc2c3c(=O)n(C)c(=O)n(-c4cccc(NC(C)=O)c4)c3c(C)c(=O)n2C)c(F)c1 [Example 4-50] | 10 to 100 nM | ≥ 1.5 | 100 to 1000 nM | ≥ 1.5
3 | C=C(C)c1ccc(Nc2c3c(=O)n(C4CC4)c(=O)n(-c4cccc(NC(C)=O)c4)c3c(C)c(=O)n2C)c(F)c1 [Example 4-97] | < 10 nM | ≥ 1.5 | 10 to 100 nM | ≥ 1.5
4 | CCC(=O)Nc1cccc(-n2c(=O)n(C3CC3)c(=O)c3c(Nc4ccc(I)cc4F)n(C)c(=O)c(C)c32)c1 [Example 4-60] | < 10 nM | ≥ 1.5 | 10 to 100 nM | ≥ 1.5
5 | C#Cc1ccc(Nc2cc(=O)n(C)c3c2c(=O)n(C2CC2)c(=O)n3-c2cccc(NS(=O)(=O)CC)c2)c(F)c1 [Example 1-289] | < 10 nM | ≥ 1.5 | < 10 nM | ≥ 1.5
6 | Cc1c(=O)n(C)c(Nc2ccc(I)cc2F)c2c(=O)n(C3CC3)c(=O)n(-c3ccc(NS(C)(=O)=O)c(Cl)c3)c12 [Example 4-116] | < 10 nM | ≥ 1.5 | 100 to 1000 nM | ≥ 1.5
7 | CON(C)C(=O)Nc1cccc(-n2c(=O)n(C3CC3)c(=O)c3c(Nc4ccc(I)cc4F)n(C)c(=O)c(C)c32)c1 [Example 4-80] | < 10 nM | ≥ 1.5 | 10 to 100 nM | ≥ 1.5
8 | Cc1c(=O)n(C)c(Nc2ccc(I)cc2F)c2c(=O)n(C3CC3)c(=O)n(-c3cccc(NC(=O)c4c[nH]cn4)c3)c12 [Example 4-73] | < 10 nM | ≥ 1.5 | 10 to 100 nM | ≥ 1.5
9 | C#Cc1ccc(Nc2c3c(=O)n(C)c(=O)n(-c4cccc(NC(C)=O)c4)c3c(C)c(=O)n2C)c(F)c1 [Example 4-48] | < 10 nM | ≥ 1.5 | 10 to 100 nM | ≥ 1.5
10 | C#Cc1ccc(Nc2cc(=O)n(C)c3c2c(=O)n(C2CC2)c(=O)n3-c2cccc(NS(C)(=O)=O)c2)cc1 [Example 1-290] | < 10 nM | ≥ 1.5 | 10 to 100 nM | ≥ 1.5
11 | CNc1cccc(-n2c(=O)n(C3CC3)c(=O)c3c(Nc4ccc(Br)cc4F)cc(=O)n(C)c32)c1 [Example 1-283] | 10 to 100 nM | ≥ 1.5 | 100 to 1000 nM | ≥ 1.5
12 | Cc1c(=O)n(C)c(Nc2ccc(I)cc2F)c2c(=O)n(C3CC3)c(=O)n(-c3ccc4c(c3)NC(=O)C4)c12 [Example 4-88] | < 10 nM | ≥ 1.5 | < 10 nM | ≥ 1.5
13 | CCS(=O)(=O)Nc1ccc(-n2c(=O)n(C3CC3)c(=O)c3c(Nc4ccc(I)cc4F)n(C)c(=O)c(C)c32)cc1 [Example 4-77] | < 10 nM | ≥ 1.5 | 10 to 100 nM | ≥ 1.5
14 | Cn1c(=O)cc(Nc2ccc(C(F)(F)F)cc2F)c2c(=O)n(C3CC3)c(=O)n(-c3cccc(NS(C)(=O)=O)c3)c21 [Example 1-301] | 10 to 100 nM | ≥ 1.5 | 100 to 1000 nM | ≥ 1.5
15 | CCCc1ccc(Nc2c3c(=O)n(C4CC4)c(=O)n(-c4cccc(NC(C)=O)c4)c3c(C)c(=O)n2C)c(F)c1 [Example 4-53] | 10 to 100 nM | ≥ 1.5 | 100 to 1000 nM | ≥ 1.5
16 | Cn1c(=O)cc(Nc2ccc(Br)cc2F)c2c(=O)n(C3CC3)c(=O)n(-c3ccccc3)c21 [Example 1-152] | 10 to 100 nM | ≥ 1.5 | 100 to 1000 nM | ≥ 1.5
17 | Cc1c(=O)n(C)c(Nc2ccc(I)cc2F)c2c(=O)n(C3CC3)c(=O)n(-c3cccc(NC(N)=O)c3)c12 [Example 4-81] | < 10 nM | ≥ 1.5 | 10 to 100 nM | ≥ 1.5
18 | C#Cc1ccc(Nc2cc(=O)n(C)c3c2c(=O)n(C2CC2)c(=O)n3-c2cccc(NS(C)(=O)=O)c2)c(C)c1 [Example 1-336] | < 10 nM | ≥ 1.5 | 10 to 100 nM | ≥ 1.5
19 | CCc1ccc(Nc2c3c(=O)n(C)c(=O)n(-c4cccc(NS(C)(=O)=O)c4)c3c(C)c(=O)n2C)c(F)c1 [Example 4-51] | < 10 nM | ≥ 1.5 | 10 to 100 nM | ≥ 1.5
